# From patent US8080367B2, “Regulation of cell survival by HSP90 and IP6K2” (The Johns Hopkins University, priority 2006, dated 2011)
# Entries after “also recorded” stand apart in the source; their conditions may differ.
# Columns and labels:
# IP6K2-HSP90 binding [1] = biological target: IP6K2-HSP90 binding (Homo sapiens, UniProt P07900); assay: Co-immunoprecipitation of HSP90 with IP6K2 from drug-treated cells; type: cell-based; conditions: for effect on IP6K2-HSP90 binding, coimmunoprecipitation: HEK 293 cells; for effect on binding of HSP90 with IP6K2, coimmunoprecipitation: myc-IP6K2-transfected HeLa cells, CP 30 overnight, NB 500 μM overnight, ST 1 μM 6 h, AAG 1 μM overnight
# Procedure: (§1) FIG. 3A, 3B, 3C. […] FIG. 3E.
# Cell culture: HeLa and HEK 293 were cultured as described (18). […] HEK293 and HeLa cells were transiently transfected using polyfect transfection reagent (Qiagen). siRNAs were transfected with ‘Hiperfect’ transfection reagent (Qiagen).
# Co-immunoprecipitation: Cells/mouse brain were homogenised in lysis buffer (20 mM Tris pH 7.4, 150 mM NaCl, 0.5% NP-40, and protease inhibitor cocktails). Equal amounts of protein were immunoprecipitated at 4° C. overnight using the protein A/G agarose beads in the presence of antibody. After immunoprecipitation, beads were washed four times with lysis buffer. Co-immunoprecipitates were resolved by SDS-PAGE and analysed by western blotting.
# IP6K2-HSP90 binding [2] = assay: In vitro HSP90-IP6K2 binding assay with purified proteins; set-up: species or system human; conditions: data not shown
# From the text: as §1
# IP6K2 [3] = assay: IP7 measurement in vivo (IP6K activity as IP7/IP6 ratio in [3H]inositol labeled cells); conditions: HeLa cells with or without overexpression of IP6K2
# HeLa cells [4] = assay: Cell death / survival (MTT assay) with IP6K2 overexpression; type: cell-based; conditions: HeLa cells transfected with IP6K2
# From the text: (§2) FIG. 5A. […] FIG. 5B. […] FIG. 5C. […] FIG. 5D. […] FIG. 5E.
# HeLa cells [5] = assay: Cell death (% apoptotic nuclei) in IP6K2 siRNA depleted cells; type: cell-based; conditions: IP6K2 RNA interference (~40% less IP7 formation)
# From the text: as §2
# IP6K2-HSP90 binding [6] = biological target: T1, IP6K2-HSP90 binding; assay: In vitro HSP90-IP6K2 binding assay with purified proteins; set-up: species or system human; conditions: purified proteins; 250 nM HSP90 from HeLa preincubated with drug 30 min 37° C., then myc-IP6K2 beads; western blot; read-out: concentration reducing IP6K2-HSP90 binding by 50%
# T1 construct: other: purified proteins; 250 nM HSP90 from HeLa preincubated with d
# From the text: as §1
# IP6K2 [7] = assay: Intracellular localization of IP6K2 (nuclei isolation, fluorescence microscopy); type: cell-based; conditions: for effect on nuclear vs cytosolic myc-IP6K2, nuclei isolation and densitometry: 60 μg total protein per lane, anti-myc blot; for effect on intracellular localization of IP6K2: drug-treated cells
# Procedure: FIG. 4A-4F. HSP90 regulates intracellular localization of IP6K2. FIG. 4A. […] Following drug treatment, nuclei were isolated from the rest of the cytoplasm. In each lane, 60 μg of total protein was loaded and the localization of IP6K2 assessed with an anti-myc antibody. Bands were analyzed by densitometry and changes in localization were calculated with the basal distribution of IP6K2 as a control. […] FIG. 4B. GFP-IP6K2 stably expressed in HEK 293 cells is distributed to a similar extent in cytosol and nucleus. Cells were stained with Hoechst stain for nucleus. FIG. 4C. Overexpression of pDSRed-HSP90 in HEK293 stably expressing GFP-IP6K2 retains IP6K2 completely in the cytosol. HSP90 also co-localizes well with IP6K2 as indicated by the yellow color of the merged picture. FIG. 4D. […] FIG. 4E. […] Cells overexpressing HSP90 (arrow a) display co-localization of IP6K2-HSP90 in the cytosol, whereas in cells lacking overexpressed HSP90 (arrow b), IP6K2 is nuclear. FIG. 4F. Effects of HSP90 depletion on intracellular localization of IP6K2. In HeLa, cells transiently expressed GFP-IP6K2 occurs diffusely throughout cells. Depletion of HSP90 by RNAi (depletion is 100% as shown in FIG. 6), leads to nuclear accumulation of IP6K2.
# Isolation of nuclei: Nuclei were separated from other cytoplasmic components using commercial kits (See ‘Reagents’ section). Preparation was checked each time by running appropriate controls for nucleus (p84).
# Fluorescence microscopy: HeLa cells were transfected with pEGFP+IP6K1/IP6K2/IP6K3, either alone or with pDsRed HSP90α with or without drug or siRNA treatment, fixed with ice cold methanol, stained with Hoechst stain for nucleus and observed under an Ultraview1 confocal microscope.
# IP6K2-HSP90 binding [8] = biological target: T2, IP6K2-HSP90 binding (Homo sapiens, UniProt Q9UHH9); assay: In vitro HSP90-IP6K2 binding assay with purified proteins; conditions: IP6K2 preincubated with increasing concentrations of IP6 15 min, then HSP90 1 h
# T2 construct: purified endogenous HSP90 (HeLa); made in house; host or cells: HSP90 purified from HeLa cells (endogenous); myc-IP6K2 immunoprecipitated from transfected HEK 293 cells
# T2 sequence (Q9UHH9 1-426): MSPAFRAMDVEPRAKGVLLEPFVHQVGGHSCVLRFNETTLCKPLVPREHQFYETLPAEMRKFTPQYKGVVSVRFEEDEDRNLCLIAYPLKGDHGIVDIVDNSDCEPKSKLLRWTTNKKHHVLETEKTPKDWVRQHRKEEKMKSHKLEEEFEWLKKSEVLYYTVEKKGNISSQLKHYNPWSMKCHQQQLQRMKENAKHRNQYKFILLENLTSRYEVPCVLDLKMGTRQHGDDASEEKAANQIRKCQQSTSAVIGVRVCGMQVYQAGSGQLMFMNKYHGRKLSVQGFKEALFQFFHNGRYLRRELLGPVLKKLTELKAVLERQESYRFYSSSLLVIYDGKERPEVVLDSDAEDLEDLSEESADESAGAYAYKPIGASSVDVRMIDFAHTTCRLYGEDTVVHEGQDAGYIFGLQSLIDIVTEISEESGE
# From the text: as §1
# HeLa cells [9] = conditions: reference 10; cited from earlier work
# HSP90 = HSP90 (Homo sapiens, UniProt P07900); assay: HSP90 binding to ATP-agarose beads; conditions: increasing concentrations, FIG. 7
# From the text: Beads were washed with wash buffer and run on 4-12% SDS-PAGE. Bound HSP90 was detected by western blotting with anti-HSP90 monoclonal antibody.
Molecule,effect on IP6K2 activity / IP7 formation in cells (IP6K2 [3]),change of drug's apoptotic action on IP6K2 overexpression (HeLa cells [4]),change of drug-elicited cell death in IP6K2 depleted cells (HeLa cells [5]),IC50 (IP6K2-HSP90 binding [6]) [µM],"effect on nuclear vs cytosolic myc-IP6K2, nuclei isolation and densitometry (IP6K2 [7])",effect on intracellular localization of IP6K2 (IP6K2 [7]),"effect on IP6K2-HSP90 binding, coimmunoprecipitation (IP6K2-HSP90 binding [1])","effect on binding of HSP90 with IP6K2, coimmunoprecipitation (IP6K2-HSP90 binding [1])",also measured
p23: a co-chaperone which binds HSP90 with high affinity,,,,,,,,,"effect of p23 on IP6K2-HSP90 coprecipitation (IP6K2-HSP90 binding [1]; HeLa cells, data not shown): does not affect their coprecipitation in HeLa cells; effect of p23 on in vitro IP6K2-HSP90 binding (IP6K2-HSP90 binding [2]): only influences in vitro IP6K2-HSP90 binding at a high molar ratio (1:20)"
CO[C@@H]1[C@@H](OC(N)=O)[C@@H](O)[C@H](Oc2ccc3c(O)c(NC(=O)c4ccc(O)c(CC=C(C)C)c4)c(=O)oc3c2C)OC1(C)C [novobiocin],augmented IP6K2 activity,markedly enhanced by IP6K2 overexpression,reduced by almost half,~200,increases nuclear and decreases cytosolic IP6K2,enhance nuclear levels of IP6K2,,,effect on IP6K2 activity / IP7 formation in cells (IP6K2 [3]; listed as NB): increase IP6K activity
"C=CCNC1=C2C[C@@H](C)C[C@H](OC)[C@H](O)[C@@H](C)/C=C(\C)[C@H](OC(N)=O)[C@@H](OC)/C=C\C=C(/C)C(=O)NC(=CC1=O)C2=O [AAG, 17-aminoallyl geldanamycin]",diminishes IP6K activity; also recorded: less IP7 formation,unaffected by IP6K2 overexpression,unaffected by IP6K2 depletion,,elicits the opposite effect,increases IP6K2 localization in the cytosol,,,
N.N.[Cl][Pt][Cl] [cisplatin],augmented IP6K2 activity,markedly enhanced by IP6K2 overexpression,reduced by almost half,1 to 5,,enhance nuclear levels of IP6K2,diminish IP6K2-HSP90 binding,disrupt the binding of HSP90 with IP6K2,effect on IP6K2 activity / IP7 formation in cells (IP6K2 [3]; listed as CP): increase IP6K activity
O=P(O)(O)O[C@H]1[C@H](OP(=O)(O)O)[C@@H](OP(=O)(O)O)[C@H](OP(=O)(O)O)[C@@H](OP(=O)(O)O)[C@H]1OP(=O)(O)O [IP6],,,,,,,,,effect of IP6 on in vitro binding of HSP90 to myc IP6K2 (IP6K2-HSP90 binding [8]): abolished
CN[C@@H]1C[C@H]2O[C@@](C)([C@@H]1OC)n1c3ccccc3c3c4c(c5c6ccccc6n2c5c31)C(=O)NC4 [staurosporine],augmented IP6K2 activity,markedly enhanced by IP6K2 overexpression,,,,elicits mitochondrial translocation of IP6K2,diminish IP6K2-HSP90 binding,disrupt the binding of HSP90 with IP6K2,"effect on IP6K2 activity / IP7 formation in cells (IP6K2 [3]; listed as ST): increase IP6K activity; change of drug's apoptotic effects on IP6K2 depletion, previously reported (HeLa cells [9]): IP6K2 depletion prevents the apoptotic effects; effect on HSP90 binding to ATP-agarose beads (HSP90): inhibits binding of HSP90 to ATP-agarose beads in a concentration dependent manner"
